# According to patent publication EP1576946A1, “Use of inhibitors of gram-positive cocci in deodorants and antiperspirants” (Henkel Kommanditgesellschaft auf Aktien, priority 2004, dated 2005):
# Test system: Anaerococcus octavius (Peptostreptococcus octavius)
# Test: Filter paper/surface method: inhibition zone and growth under the filter disc
# Assay type: cell-based
# Procedure: Weiterhin wurden die Wirkstoffe mit Hilfe des Filterpapier/Oberflächenverfahrens vermessen. Der Testkeim Anaerococcus octavius (Peptostreptococcus octavius) war erhältlich als DSM 10024; er wurde 5 Tage bei 37 °C vorinkubiert. 0,3 ml Wirkstofflösung bzw. 0,3 g wirkstoffhaltiges Produkt wurden auf eine Filterpapierscheibe mit einem Durchmesser von 4,5 cm aufgebracht, anschließend wurde die Filterpapierscheibe auf den bakterienhaltigen Agar gelegt. Nach der Inkubationszeit wurde die Größe des gebildeten Hemmhofes vermessen. Bei den Lösungen, für die kein Hemmhof detektiert werden konnte, weil der Wirkstoff nicht in den Agar penetriert war, wurde zusätzlich das Wachstum unter den Filterpapierscheiben beurteilt.
# [1] = 22 Gew.-% Aktivsubstanz, medium Wasser, pH after adjustment ca. 4
# [2] = 8 Gew.-% Aktivsubstanz, medium Wasser/ Ethanol (30 Vol.-% / 70 Vol.-%), pH after adjustment 4,2
# [3] = 20 Gew.-% Aktivsubstanz, medium Wasser, pH after adjustment 4,2
# [4] = 0,5 Gew.-% Aktivsubstanz, medium Wasser, pH tel quel 6,5, after addition of Citronensäure 5,1
molecule,measurement,setting,value
Aluminium Zirconium Tetrachlorohydrex Gly [REACH AZP 908 (Powder)],Durchmesser des Hemmhofes,[1],0 mm
same,Wachstum unter der Filterscheibe,[1],kein Wachstum
Aluminium chlorohydrate,Durchmesser des Hemmhofes,[2],0 mm
same,Wachstum unter der Filterscheibe,[2],deutlich gehemmt
same,Durchmesser des Hemmhofes,[3],0 mm
same,Wachstum unter der Filterscheibe,[3],leicht gehemmt
"CCCCC(CC)COCC(O)CO (stereo not drawn) [Sensiva SC 50, α-Mono-(2-ethylhexyl)glycerinether]",Wachstum unter der Filterscheibe,"0,5 Gew.-% Aktivsubstanz, medium Wasser/ Ethanol (50 Vol.-% / 50 Vol.-%), pH tel quel 6,65, after addition of Citronensäure 5,1",deutlich gehemmt
same,zone of inhibition at 0.5 %,"Anaerococcus octavius, read-out: Durchmesser des Hemmhofes",0 mm
"O=C(O)CCCCCCC/C=C\CCCCCCCC(=O)O [Arlatone DCA, 9(Z)-Octadecendicarbonsäure]",Wachstum unter der Filterscheibe,"2 Gew.-% Aktivsubstanz, medium Ethanol",kein Wachstum
same,zone of inhibition at 2 %,"Anaerococcus octavius, 2 Gew.-% Aktivsubstanz, medium Ethanol, read-out: Durchmesser des Hemmhofes",4 mm
Zinkgluconat,Durchmesser des Hemmhofes,[4],0 mm
same,Wachstum unter der Filterscheibe,[4],deutlich gehemmt
